Measured values as given in patent US20040071747A1, “Cosmetics” (priority 2001, published 2004).

Assay: Solubility in water or squalane by visual observation
Format: physicochemical
Set-up: key: ∘: Completely dissolved; x: Separated or precipitated without dissolution
Conditions: 25° C.
Method: Solubilityies of 1% by weight of components (1) to (5), and those of 0.01% by weight of components (6) and (7) were examined by visual observation of the dissolving states of the components mixed at 25° C. with water or squalane.

Row | Solubility in Squalane (0.01% by weight) | Solubility in Water (0.01% by weight) | Solubility in Squalane (1% by weight) | Solubility in Water (1% by weight) | SMILES
1 | x | ∘ | – | – | CCN(Cc1cccc(S(=O)(=O)[O-])c1)c1ccc(C(=C2C=CC(=[N+](CC)Cc3cccc(S(=O)(=O)[O-])c3)C=C2)c2ccccc2S(=O)(=O)[O-])cc1.[Na+].[Na+] [Blue No.1]
2 | – | – | x | ∘ | CC1(C)[C@@H](O[C@H]2O[C@H](C(=O)[O-])[C@@H](O)[C@H](O)[C@H]2O[C@@H]2O[C@H](C(=O)[O-])[C@@H](O)[C@H](O)[C@H]2O)CC[C@]2(C)[C@H]3C(=O)C=C4[C@@H]5C[C@@](C)(C(=O)O)CC[C@]5(C)CC[C@@]4(C)[C@]3(C)CC[C@@H]12.[K+].[K+] [Dipotassium Glycyrrhizinate]
3 | x | ∘ | – | – | Cc1ccc(Nc2ccc(O)c3c2C(=O)c2ccccc2C3=O)c(S(=O)(=O)[O-])c1.[Na+] [Purple No.401]
